Data as given in article PMC12086361, “Downstream Signaling of Muscarinic M4 Receptors Is Regulated by Receptor Density and Cellular Environment” (Pharmacology Research & Perspectives, 2025).

target: T1, human M4 receptor (hM4) (Homo sapiens, UniProt P08173); assay: cADDis cAMP sensor FLIPR assay, HEK293 hM4, decrease of forskolin-stimulated cAMP; format: cell-based; details: read-out: HEK-293, hM4, cAMP (48 h) / Gi pEC50 /slope (converted)
T1 construct: gene CHRM4
T1 sequence (P08173 1-479): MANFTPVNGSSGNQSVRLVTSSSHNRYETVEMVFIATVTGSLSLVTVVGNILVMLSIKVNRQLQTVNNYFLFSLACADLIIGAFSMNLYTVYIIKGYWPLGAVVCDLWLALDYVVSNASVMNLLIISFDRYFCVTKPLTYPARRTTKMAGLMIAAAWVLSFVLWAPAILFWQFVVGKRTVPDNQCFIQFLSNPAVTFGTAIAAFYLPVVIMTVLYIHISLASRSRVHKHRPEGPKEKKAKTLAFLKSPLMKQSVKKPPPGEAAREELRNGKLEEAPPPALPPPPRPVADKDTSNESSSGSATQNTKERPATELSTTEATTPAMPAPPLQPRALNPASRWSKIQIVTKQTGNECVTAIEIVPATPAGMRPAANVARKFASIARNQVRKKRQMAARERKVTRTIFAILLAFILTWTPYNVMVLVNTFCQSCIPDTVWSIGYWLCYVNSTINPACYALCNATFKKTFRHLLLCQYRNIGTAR
Source text: cADDis cAMP sensor FLIPR assay, HEK293 hM4, decrease of forskolin-stimulated cAMP on human M4 receptor (hM4)

Row | Compound | EC50 [nM]
1 | CCOC(=O)N1CC2(CCC(N3CCC(N(CC)C(C)=O)CC3)C2)C1 (stereo not drawn) [compound 6, compound-6] | 0.407
2 | COC(=O)N1CCC(N2CCC(n3c(=O)n(C)c4ccccc43)CC2)CC1 [compound 110, compound-110] | 0.646
3 | C[N+](C)(C)CC#CCN1CCCC1=O [oxotremorine-M] | 1.2
